This is an account of results in patent publication US10632095B2 (Zoetis Services LLC, priority 2013, dated 2020).

One data set deals with swine COX-2 (Sus scrofa, UniProt Q8SPR3). Nature of the data set: Porcine alveolar macrophage COX inhibitor assay (PGE2 read-out). Type of data set: cell-based. The settings on record: for IC90: read-out: COX-2 IC90. The method, then: (§1) Alveolar macrophages were treated with a lipopolysaccharide (LPS), in the presence of varying amounts of inhibitors, to produce thromboxane B2 (TXB2) and/or prostaglandin E2 (PGE2). […] Each drug was tested in three different experiments on three different days (at a minimum).

A further data set addresses swine COX-1 (Sus scrofa, UniProt A0A287ANF9). In words: Porcine alveolar macrophage COX inhibitor assay (TXB2 read-out). The following applies: for IC90: read-out: COX-1 IC90. In kind it is cell-based. The method, then: as §1
For the next data set, the target named is T1, bovine COX-1 (Bos taurus, UniProt O62664).
T1 construct: using a bovine whole blood assay; from tissue; host or cells: heparinized bovine whole blood, protamine-treated to induce clotting
T1 sequence (O62664 25-600): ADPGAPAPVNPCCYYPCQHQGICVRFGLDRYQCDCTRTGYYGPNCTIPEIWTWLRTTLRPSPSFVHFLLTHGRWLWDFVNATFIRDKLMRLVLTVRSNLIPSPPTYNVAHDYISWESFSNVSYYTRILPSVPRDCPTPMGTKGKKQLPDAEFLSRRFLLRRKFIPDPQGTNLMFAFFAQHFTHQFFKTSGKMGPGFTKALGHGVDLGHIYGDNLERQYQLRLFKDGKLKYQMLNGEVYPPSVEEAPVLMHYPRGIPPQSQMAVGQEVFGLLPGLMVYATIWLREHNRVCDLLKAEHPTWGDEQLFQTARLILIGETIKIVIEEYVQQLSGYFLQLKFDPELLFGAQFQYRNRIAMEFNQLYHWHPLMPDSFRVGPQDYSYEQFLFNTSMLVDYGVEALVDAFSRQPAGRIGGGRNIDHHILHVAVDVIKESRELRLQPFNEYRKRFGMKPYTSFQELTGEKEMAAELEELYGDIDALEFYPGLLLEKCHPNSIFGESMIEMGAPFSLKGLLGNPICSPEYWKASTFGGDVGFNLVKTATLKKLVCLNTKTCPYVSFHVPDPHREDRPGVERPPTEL
In words: Bovine in vitro whole blood COX inhibitor assay (TXB2). Type of data set: cell-based. The method, then: (§2) Briefly, heparinized blood was collected for both assays. The COX-1 assay involved treatment of the blood with protamine; to reverse the anti-coagulation effects of heparin; thus, inducing clotting and production of Thromboxane B2 (TXB2). The COX-2 assay involved treatment of blood with LPS to produce PGE2. Both assays included the presence of varying amounts of inhibitors, to inhibit the TXB2 or PGE2. […] Percent inhibition was calculated from the raw data for each drug dose based on the mean of the TXB2 or PGE2 concentrations. Then the mean % inhibition curves (% inhibition versus drug concentration) were analyzed via non-linear regression to yield individual IC50 and IC90 values.

The next data set has as its target T2, bovine COX-2 (Bos taurus, UniProt O62698).
T2 construct: using a bovine whole blood assay; from tissue; host or cells: heparinized bovine whole blood, LPS-treated
T2 sequence (O62698 18-604): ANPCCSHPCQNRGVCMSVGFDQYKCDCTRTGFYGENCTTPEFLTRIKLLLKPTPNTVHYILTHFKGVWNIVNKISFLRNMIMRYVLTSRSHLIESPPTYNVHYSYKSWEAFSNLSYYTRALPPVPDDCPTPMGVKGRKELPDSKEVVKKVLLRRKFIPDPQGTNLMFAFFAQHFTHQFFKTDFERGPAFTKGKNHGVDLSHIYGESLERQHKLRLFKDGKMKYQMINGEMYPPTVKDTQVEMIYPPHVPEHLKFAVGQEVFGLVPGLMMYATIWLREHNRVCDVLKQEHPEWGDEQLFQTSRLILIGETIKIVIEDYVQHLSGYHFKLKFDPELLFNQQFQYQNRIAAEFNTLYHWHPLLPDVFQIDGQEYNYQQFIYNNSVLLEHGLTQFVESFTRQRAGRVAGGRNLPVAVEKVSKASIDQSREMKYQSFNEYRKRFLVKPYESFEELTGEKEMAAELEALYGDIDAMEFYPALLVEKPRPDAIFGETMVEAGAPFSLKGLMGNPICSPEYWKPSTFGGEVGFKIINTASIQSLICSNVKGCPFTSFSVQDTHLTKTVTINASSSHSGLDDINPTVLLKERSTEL
In words: Bovine in vitro whole blood COX inhibitor assay (PGE2). Type of data set: cell-based. The method, then: as §2

The subject of another data set is bradykinin. The settings on record: Julou 1976; cited from earlier work.
The next data set relates to LPS-induced lameness. Nature of the data set: LPS-induced swine synovitis model. Type of data set: in vivo. The following applies: validation study, 2.2 mg/kg, IM.
Data set [1] concerns swine influenza virus (SIV)-induced fever. In kind it is in vivo.
The nature of data set [2]: Hydrolysis in swine liver microsomes. Type of data set: in vitro ADME. (In general: Microsomes from liver hold many membrane-bound enzymes, among them those of drug oxidation.)
The nature of data set [3]: Hydrolysis in swine plasma. Type of data set: in vitro ADME.
[4] abbreviates: read-out: COX-2 IC50, LPS-treated porcine alveolar macrophages, PGE2 by ELISA, 21-24 hours incubation.
The mark [5] stands for this setting: read-out: COX-1 IC50, LPS-treated porcine alveolar macrophages, TXB2 by ELISA, 21-24 hours incubation.
The mark [6] stands for this setting: LPS-treated porcine alveolar macrophages, PGE2 by ELISA, 21-24 hours incubation, read-out: COX-2 IC50.
The mark [7] stands for this setting: LPS-treated porcine alveolar macrophages, PGE2 by ELISA, 21-24 hours incubation.
Where [8] appears, read: LPS-treated porcine alveolar macrophages, TXB2 by ELISA, 21-24 hours incubation, read-out: COX-1 IC50.
The mark [9] stands for this setting: LPS-treated porcine alveolar macrophages, TXB2 by ELISA, 21-24 hours incubation.

Where two headings read alike, the source gives them in different places.

Sequence of swine COX-1 (A0A287ANF9 25-600): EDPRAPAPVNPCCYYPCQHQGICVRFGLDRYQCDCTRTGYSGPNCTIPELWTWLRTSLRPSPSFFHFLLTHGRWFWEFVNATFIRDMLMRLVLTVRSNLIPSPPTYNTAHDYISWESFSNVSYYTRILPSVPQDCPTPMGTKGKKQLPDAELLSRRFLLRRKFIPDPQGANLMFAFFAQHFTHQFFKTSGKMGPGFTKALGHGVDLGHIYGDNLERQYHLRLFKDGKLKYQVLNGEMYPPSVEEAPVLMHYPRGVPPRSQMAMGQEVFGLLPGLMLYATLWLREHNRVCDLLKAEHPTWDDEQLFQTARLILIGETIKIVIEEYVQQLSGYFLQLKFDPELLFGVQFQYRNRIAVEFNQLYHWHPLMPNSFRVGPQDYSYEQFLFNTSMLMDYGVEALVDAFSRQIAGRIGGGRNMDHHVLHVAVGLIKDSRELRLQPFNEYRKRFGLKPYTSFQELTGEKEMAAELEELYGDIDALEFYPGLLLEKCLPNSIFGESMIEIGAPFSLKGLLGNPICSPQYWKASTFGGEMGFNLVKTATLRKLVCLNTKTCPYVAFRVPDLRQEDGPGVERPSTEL
Sequence of swine COX-2 (Q8SPR3 entry or part of it): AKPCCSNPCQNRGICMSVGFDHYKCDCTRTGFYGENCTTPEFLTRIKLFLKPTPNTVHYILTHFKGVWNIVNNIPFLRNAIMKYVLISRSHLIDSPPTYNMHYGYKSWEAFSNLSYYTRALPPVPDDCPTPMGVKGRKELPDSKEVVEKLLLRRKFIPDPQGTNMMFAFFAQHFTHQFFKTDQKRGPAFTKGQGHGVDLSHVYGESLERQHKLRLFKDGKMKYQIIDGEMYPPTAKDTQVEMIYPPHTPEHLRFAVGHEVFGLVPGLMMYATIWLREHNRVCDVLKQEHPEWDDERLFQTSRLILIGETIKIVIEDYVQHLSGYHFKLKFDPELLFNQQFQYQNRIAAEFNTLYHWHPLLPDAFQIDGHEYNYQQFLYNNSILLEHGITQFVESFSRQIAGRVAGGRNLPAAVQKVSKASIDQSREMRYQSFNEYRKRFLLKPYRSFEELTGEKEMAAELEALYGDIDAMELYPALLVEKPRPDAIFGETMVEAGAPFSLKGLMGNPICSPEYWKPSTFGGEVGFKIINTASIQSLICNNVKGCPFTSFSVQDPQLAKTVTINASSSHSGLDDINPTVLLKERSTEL

As to `CC(C(=O)O)c1cccc(C(=O)c2ccccc2)c1` (racemic) [Ketoprofen, 2-(3-benzoylphenyl)-propionic acid], the IC50 at swine COX-2 (setting [4]) was 6 nM; at swine COX-2 (read-out: IC50 against swine ortholog of COX-2, one range given for COX-1 and COX-2), 6 to 7 nM; at swine COX-1 (setting [5]) it was 7 nM; at swine COX-1 (read-out: IC50 against swine ortholog of COX-1, one range given for COX-1 and COX-2), 6 to 7 nM; against bovine COX-1, 30 nM; on bovine COX-2 (read-out: IC50 against bovine COX-2) it was 220 nM. Further, the 90% effect concentration (IC90) at swine COX-2 and at swine COX-1 was 80 nM each time. In the data set on bradykinin, the “functional bradykinin antagonist activity, effects greater than indomethacin” value is 8 times.

With `C[C@H](C(=O)O)c1cccc(C(=O)c2ccccc2)c1` (single isomer, unassigned) [Ketoprofen (S)-enantiomer], the IC50 at swine COX-2 (setting [6]) worked out at 1 nM; at swine COX-1 (setting [8]), 2 nM. In addition, the figures for the IC90 on swine COX-2 (setting [7]) and on swine COX-1 (setting [9]) were 40 nM and 60 nM, respectively.

As to `CC(C(=O)O)c1ccc2c(c1)[nH]c1ccc(Cl)cc12` (stereo not shown) [Carprofen], the half-inhibitory concentration (IC50) at swine COX-2 (setting [4]) is 3170 nM; on swine COX-1 (setting [8]), 5060 nM. In addition, the 90% effect concentration (IC90) at swine COX-2 was determined as 39000 nM; on swine COX-1 it was 58400 nM.

Take `Cc1c(Nc2ncccc2C(=O)O)cccc1C(F)(F)F` [Flunixin]: the IC50 was found to be 33 nM on swine COX-2 (setting [6]) and 66 nM on swine COX-1 (setting [5]). Moreover, the IC90 on swine COX-2 (setting [7]) amounted to 507 nM; at swine COX-1 (setting [9]) it was 747 nM. The “reduction of LPS-induced lameness” value with LPS-induced lameness is recorded as “effective at reducing LPS-induced lameness”.

For the compound `COC(=O)C(C)c1cccc(C(=O)c2ccccc2)c1` (stereo not shown) [Formula 1, methyl 2-(3-benzoylphenyl)propanoate], the IC50 on swine COX-2 (setting [4]) amounted to 130 nM; at swine COX-1 (setting [5]), 260 nM; against bovine COX-1, 500 nM; on bovine COX-2 it was 290 nM. For the same compound, the IC90 was found to be 840 nM at swine COX-2, 1680 nM at swine COX-1, 3100 nM on bovine COX-1 (read-out: IC90 COX-1) and 2290 nM on bovine COX-2 (read-out: IC90 COX-2). Also, the “potency relative to Meloxicam” value at swine COX-2 (swine COX, Table 1) is given as “about 5 times”. In addition, the “anti-pyretic activity continues through (post-dose)” value in [1] (6 mg/kg IM in Miglyol 812) is at least 72 h. In data set [1] (Formula 1 4, 5, 6 mg/kg IM, Banamine 2.2 mg/kg IM), the “activity compared with vehicle at t=35 hours (11 hours post-dose)” value is recorded as “remained active”. For the same compound, the “fever reduction compared with vehicle” value in [1] (young gilts, in Miglyol 812, 4, 5, 6 mg/kg IM, 24 hours after SIV, all timepoints from 1 hour post-dose) was “significantly reduced fever”. Also, in data set [1] (young gilts, in Miglyol 812, 4, 5 and 6 mg/kg IM), the “onset of anti-pyretic efficacy post-dose” value was 1 h. Moreover, in [2], the “hydrolysis in swine liver microsomes” value is reported as “hydrolyzed rapidly”. Further, the “hydrolysis in swine plasma” value in [3] is reported as “moderately or slowly”.

Consider `CCOC(=O)C(C)c1cccc(C(=O)c2ccccc2)c1` (stereo not shown) [Formula 2, ethyl 2-(3-benzoylphenyl)propanoate], for which, in data set [2], the “hydrolysis in swine liver microsomes” value is “hydrolyzed rapidly”. In [3], the “hydrolysis in swine plasma” value is given as “moderately or slowly”.

`CC(C(=O)OCCNC(=O)c1cccnc1)c1cccc(C(=O)c2ccccc2)c1` (stereo not shown) [Formula 3, 2-(nicotinamido)ethyl 2-(3-benzoylphenyl)propanoate]: the 50% inhibitory concentration (IC50) at swine COX-2 (setting [4]) amounted to 120 nM; at swine COX-1 (setting [5]) it was 150 nM. Besides, the 90% effect concentration (IC90) was determined as 930 nM at swine COX-2 and 4860 nM at swine COX-1. Besides, in [2], the “hydrolysis in swine liver microsomes” value is given as “hydrolyzed rapidly”. In data set [3], the “hydrolysis in swine plasma” value was “moderately or slowly”.

With `Cc1cnc(NC(=O)C2=C(O)c3ccccc3S(=O)(=O)N2C)s1` [Meloxicam], the IC50 worked out at 560 nM at swine COX-2 (setting [4]) and 1020 nM at swine COX-1 (setting [8]). In addition, the concentration for an effect of 90% (IC90) on swine COX-2 stood at 9000 nM; at swine COX-1 it was 49300 nM.

The IC50 is the concentration that gives 50% inhibition. A word on the IC90: it is the concentration at which the effect reaches the 90% level.
